Test results published in the supplement of paper PMC11208160.

Assay: recombinant barcode read abundance after kanamycin selection (control-corrected) (log10(CPM+1)); higher = more efficient recombination; sequences stand for … in AGTGCAGAGAAAATCGGCCAGTTTTCTCTGCCTGCAGTCCGCATGCCGT…AGATTTATGCAGCGGACTGCCTTTCTCCCAAAGTGATAAACCGGACAGTATCATGGACCGGTTTTCCCGGTAATCCGTATTTGCAAGGTTGGTTTCACT; site = the 11-nt target
Method in brief: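 For this pooled screen, each oligo contained a promoter, a target, a barcode and the J23119-driven first 104 bases of the bridge RNA. Gibson cloning placed it into a vector supplying the remaining 73 bp and a T7-inducible recombinase, and the pool was co-electroporated into E. coli with a donor plasmid. Recombination efficiency is derived from barcode counts per million at recombinant junctions after averaging and control correction, and is expressed on a log scale as log10(CPM+1), with selection on chloramphenicol/ampicillin/kanamycin plus 0.1 mM IPTG against a chloramphenicol/ampicillin LB agar control.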
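Also: IS621 recombinase and bridge RNA in Escherichia coli cells.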

Sequence | recombinant barcode read abundance (log10)
TGCCCCGCTTGGGTTCTAACCTGTTGCCT (site TGCCCCGCTAG) | 1.11
TGCCGAACTTGGGTTCTAACCTGTTGCCT (site AGCCGAACTAG) | 0.0709
TGCCGAACTTGGGTTCTAACCTGTTGCCT (site CGCCGAACTAG) | 0.16
TGCCGAACTTGGGTTCTAACCTGTTGCCT (site GGCCGAACTAG) | 0.0503
TGCCGAACTTGGGTTCTAACCTGTTGCCT (site TGCCGAACTAG) | 0.161
TGCCGCTCTTGGGTTCTAACCTGTTGCCT (site TGACGCTCTAG) | 1.35
TGCCGCTCTTGGGTTCTAACCTGTTGCCT (site TGCCGCTCTAG) | 1.24
TGCCGCTCTTGGGTTCTAACCTGTTGCCT (site TGGCGCTCTAG) | 0.277
TGCCGCTCTTGGGTTCTAACCTGTTGCCT (site TGTCGCTCTAG) | 0.0629
TGCGACCCTTGGGTTCTAACCTGTTGCTT (site TGCGACCCTAA) | 1.74
TGCGACCCTTGGGTTCTAACCTGTTGCTT (site TGGGACCCTAT) | 0.312
TGCGACTCTTGGGTTCTAACCTGTTGCCT (site TGAGACTCTAG) | 1.47
TGCGACTCTTGGGTTCTAACCTGTTGCCT (site TGCGACTCTAG) | 1.5
TGCGACTCTTGGGTTCTAACCTGTTGCCT (site TGGGACTCTAG) | 0.0561
TGCGACTCTTGGGTTCTAACCTGTTGCCT (site TGTGACTCTAG) | 0.0576
TGCGTAACTTGGGTTCTAACCTGTTGCCA (site GAACCTCCTAT) | 0.0676
TGCGTAACTTGGGTTCTAACCTGTTGCCA (site TGCGTAACTTG) | 0.104
TGCTCTACTTGGGTTCTAACCTGTTGCTG (site TGCTCTACTCA) | 0.00915

Sequence | recombinant barcode read abundance (log10)
TGCTCTACTTGGGTTCTAACCTGTTGCTG (site TGTTCTACTCG) | 0.114
TGGACTTCTTGGGTTCTAACCTGTTGCTT (site TGGAATTCTAA) | 0.0677
TGGACTTCTTGGGTTCTAACCTGTTGCTT (site TGGACTTCTAA) | 0.0981
TGGAGCCCTTGGGTTCTAACCTGTTGCTT (site TGGAGCCCTAA) | 0.463
TGGAGCCCTTGGGTTCTAACCTGTTGCTT (site TGGAGTCCTAA) | 0.136
TGGAGTACTTGGGTTCTAACCTGTTGCTT (site TGGAGTACTAA) | 1.02
TGGAGTACTTGGGTTCTAACCTGTTGCTT (site TGTAGTACTAG) | 0.0535
TGGATTCCTTGGGTTCTAACCTGTTGCCT (site TGGATTCCTAG) | 0.223
TGGATTCCTTGGGTTCTAACCTGTTGCCT (site TGGATTGCTAG) | 0.392
TGGCAATCTTGGGTTCTAACCTGTTGCCT (site ACCTCGGCTCA) | 0.556
TGGCAATCTTGGGTTCTAACCTGTTGCCT (site TGGCAATCTAG) | 0.257
TGGCCCTCTTGGGTTCTAACCTGTTGCTA (site TGGCCCTCTAA) | 1.1
TGGCCCTCTTGGGTTCTAACCTGTTGCTA (site TGGCCCTCTCA) | 0.0705
TGGCCCTCTTGGGTTCTAACCTGTTGCTA (site TGGCCCTCTGA) | 0.0109
TGGCCCTCTTGGGTTCTAACCTGTTGCTA (site TGGCCCTCTTA) | 2.03
TGGCCCTCTTGGGTTCTAACCTGTTGCTG (site TGGCCCTCTAA) | 0.784
TGGCCCTCTTGGGTTCTAACCTGTTGCTG (site TGGCCCTCTCA) | 2.31
TGGCCCTCTTGGGTTCTAACCTGTTGCTG (site TGGCCCTCTGA) | 0.0444
